Source: patent US10849922B2, “Treatments for retinal disorders” (Cornell University, priority 2011, dated 2020)

How the values were obtained:
[1] = A2E fluorescence assay for molecules able to encapsulate A2E (AUC ratio); type: binding; conditions: fluorescence spectra changes as a function of added β-CD concentration
Procedure: In the assay method, at least two solutions containing a lipofuscin bisretinoid lipid are first provided, and the at least two solutions should be substantially the same in all respects, such as in the type of lipofuscin bisretinoid lipid, the concentration of lipofuscin bisretinoid lipid, and the solvent composition. A candidate compound is then added to at least one of the solutions. Fluorescence spectra of the two solutions (i.e., a first solution not containing the candidate compound and a second solution containing the candidate compound) is then measured at an excitation wavelength (e.g., 434 nm or other suitable excitation wavelength) that causes fluorescence of the lipofuscin bisretinoid lipid in the range of 530 nm and 700 nm, or any suitable sub-range therein. An area under the curve (AUC) is then determined for corresponding spectral curves of the first and second solutions within the range of 530 nm and 700 nm or a sub-range therein. […] A ratio of the AUC of the second solution (containing the candidate compound) over the AUC of the first solution (not containing the candidate compound) is then calculated. […]
The fluorescence spectra were immediately determined (although it was stable for several days) between 530 and 700 nm using a 434 nm excitation wavelength. […] The area under the resulting spectral fluorescence curve was determined with statistical software (Prism4, GraphPad). […]

[2] = Fluorescence comparison of cyclodextrin binding to DHE; conditions: fluorescence spectra changes as a function of added β-CD concentration
Source text: The binding of A2E and DHE (fluorescent cholesterol analog to cyclodextrins) has been herein investigated by using the assay method described above. […] The determination of affinity constants and stoichiometry for new inclusion complexes can be complex, particularly when the molecular ratio host:guest is bigger than 1. For cholesterol, however, the affinity constants, stoichiometry, molecular structure, and applications of many of its inclusion complexes with cyclic oligosaccharides have been well established. In this context, the side-by-side comparation of A2E and cholesterol complex formation with the same cyclic oligosaccharide serves as an immediate reference to evaluate the quality of the inclusion complex with A2E, as well as help in the determination of its affinity constant, stoichiometry, and structure.

A2E oxidation assay = conditions: A2E 5 μM in water, 48 hours, RT in the dark, cyclodextrin 10-100 mM
Procedure: Solutions containing increasing amounts of Poly Beta-CD (0 mM to 100 mM) were prepared in water, and A2E was added to a final concentration of 5 μM. The solutions were incubated at RT in the dark. 48 hrs later, the UV-visible absorption spectra between 300 and 700 nm was analyzed to determine the oxidative status of A2E. […] These bands can be assigned to the shorter (S) and longer (L) arms of A2E, respectively. Oxidation of a carbon-carbon double bond is accompanied by a hypsochromic shift. A hypsochromic shift in band S corresponds with oxidation on the short arm; a blue-shift in band L reflects oxidation on the long arm; hypsochromic shifts in both peaks indicates oxidation on both side arms (Jang Y. P. et al., J. Biol. Chem., 2005, 280(48):39732-9). The results shown in FIG. 12A indicate that under this aqueous environment A2E oxidizes.

A2E aggregation assay = conditions: A2E 25 μM aqueous solution
Source text: A2E aggregates are believed to have a role in RPE cell death. This study investigated whether cyclic oligosaccharides dissolve A2E aggregates that form in aqueous phase. The following can be deduced from FIG. 13:
[…] After three days, the liquid in each chamber was harvested and analyzed with a spectrofluorometer to detect the presence of A2E. Only inserts with 3 μm pores allowed A2E to diffuse through.
The presence of A2E on each side was established by fluorescence scanning between 530-700 nm using 434 nm as the excitation wavelength.

eyecups from DKO mice = experiment: In vitro assay on eyecups of DKO mice; conditions: 2 mM cyclodextrin, 36 hours of culture
Procedure: FIGS. 17A, 17B. […] The resulting eyecups were in vitro treated with cyclodextrins for 36 hrs before observing them under the microscope (FIG. 17B).
Eyecups comprise the dark pigmented RPE, choriocapillaries, as well as the grayish sclera. Eyecups were incubated in complete media containing, or not, 2 mM cyclodextrins. After 36 hours of culture, eyecups were flat mounted on glasses and fluorescence was analyzed in the microscope.

DKO mice = experiment: Fluorescence microscopy of cryosected retinas of DKO mice after subtenon injection; type: in vivo; conditions: single subtenon injection 4000 mg/kg, after 48 hours; for retinal detachment in cryosected retinas: 4000 mg/kg
Procedure: FIG. 18. Micrographs showing the fluorescence of cryosected retinas of 8-months old WT and DKO mice. The micrographs obtained from (A) a normal mouse, (B) DKO animals not treated with methyl beta-CD, and (C) DKO animals treated with methyl beta-CD. The DKO animals have strong autofluorescence in the RPE layer compared with WT as well as retinal detachment (size shown by arrow). Single subtenon administration of methyl Beta CD (4000 mg/kg) reduced both RPE autofluorescence and retinal detachment.
The retinas of wild type and DKO animals were analyzed by fluorescence microscopy with the following procedure. Briefly wild type and DKO animals were mock-treated or treated with a single subtenon injection with either vehicle or with methyl beta-cyclodextrin (4000 mg/kg). After 48 hours the eyes were enucleated, fixed, and cryosected. For viewing, 10-micron thick sections were blocked and stained with the red-fluorescently labeled lectin PNA to identify cones in the photoreceptor outer segments (PROS), and blue DAPI nuclear stain to identify the nuclei. In the gray scale micrograph of FIG. 18 (Panel A), the red and blue stains are not distinguishable, so the red fluorescence is labeled PROS and the lighter autofluorescent RPE is also labeled.

[3] = cited from earlier work

Compound: OC[C@H]1O[C@@H]2O[C@H]3[C@H](O)[C@@H](O)[C@@H](O[C@H]4[C@H](O)[C@@H](O)[C@@H](O[C@H]5[C@H](O)[C@@H](O)[C@@H](O[C@H]6[C@H](O)[C@@H](O)[C@@H](O[C@H]7[C@H](O)[C@@H](O)[C@@H](O[C@H]8[C@H](O)[C@@H](O)[C@@H](O[C@H]1[C@H](O)[C@H]2O)O[C@@H]8CO)O[C@@H]7CO)O[C@@H]6CO)O[C@@H]5CO)O[C@@H]4CO)O[C@@H]3CO [Compound 4, β-cyclodextrin]
- formation of inclusion complex with A2E [1]: A2E-β-CD inclusion complexes
- formation of inclusion complex with DHE [2]: formation of DHE-β-CD
- oxidation of A2E (UV-visible absorption spectra) (A2E oxidation assay): oxidation of A2E was not observed
- dissolution of A2E aggregates in aqueous phase (diffusion through 0.2 μm pores) (A2E aggregation assay): dissolved the A2E aggregates

Compound: Methyl-β-cyclodextrin [Compound 5]
- fluorescence of eyecups (bisretinoids in RPE) (eyecups from DKO mice): lack of fluorescence
- RPE autofluorescence (bisretinoids) in cryosected retinas (DKO mice): reduced
- retinal detachment in cryosected retinas (DKO mice; listed as methyl Beta CD): reduced
- retinal detachment in cryosected retinas (DKO mice; listed as methyl beta-cyclodextrin): reduced detachment

Compound: Triacetyl-β-cyclodextrin [Compound 12]
- solubility in water (in words) [3]: insoluble
